These results are taken from patent publication US9921215B2, “Method for detecting ligand using FRET biosensor” (KOREA RESEARCH INSTITUTE OF BIOSCIENCE AND BIOTECHNOLOGY, priority 2009, dated 2018).

The target in data set [1] is T1, CmglBY-SS glucose FRET biosensor: fusion protein ECFP-GGBP-EYFP of E. coli MG1655 GGBP (galactose/glucose-binding protein) (Escherichia coli, UniProt P0AEE5). Kind of data set: Ligand titration of FRET biosensor CmglBY-SS (glucose sensor) at its critical temperature. More on the design: 6xHis (C); made in house; host or cells: E. coli. The text has this:
In addition, an expression vector of CmglBY-SS, a biosensor for measuring glucose used in the present invention, was constructed in the following manner.
First, ECFP gene was amplified by PCR using a pECFP vector as a template and a forward primer of SEQ ID NO: 3 together with a reverse primer of SEQ ID NO: 13 prepared to overlap with the nucleotide sequence of the N-terminus of GGBP. Likewise, GGBP gene was amplified by PCR using a chromosomal DNA, extracted from E. coli MG1655, as a template, and a forward primer of SEQ ID NO: 14 together with a reverse primer of SEQ ID NO: 15 containing a BamHI restriction sequence. […]
(§1) The fluorescence of the FRET biosensors was measured using the fluorescence analysis system Cary Eclipse (Varian Inc., Mulgrave, Australia) under the conditions in which the proteins of each biosensor were controlled to the same concentration of 0.5 μM in 0.5 ml of PBS buffer (pH 7.4). […]
(§2) Also, Δratio that defines the detection capability of the FRET biosensor was determined according to the following equation 4: Δratio=ratiomax−ratiomin [Equation 4]
(§3) The titration curves of the FRET biosensors were expressed as Sigmoidal curves using the 4-parameter Hill equation of Sigmaplot 10.0 (Systat software Inc., USA) based on changes in the ratio measured while increasing the ligand concentration from 1 nM to 10 mM. […]
Target sequence in this assay (P0AEE5 24-332 with tags or gaps limits assumed): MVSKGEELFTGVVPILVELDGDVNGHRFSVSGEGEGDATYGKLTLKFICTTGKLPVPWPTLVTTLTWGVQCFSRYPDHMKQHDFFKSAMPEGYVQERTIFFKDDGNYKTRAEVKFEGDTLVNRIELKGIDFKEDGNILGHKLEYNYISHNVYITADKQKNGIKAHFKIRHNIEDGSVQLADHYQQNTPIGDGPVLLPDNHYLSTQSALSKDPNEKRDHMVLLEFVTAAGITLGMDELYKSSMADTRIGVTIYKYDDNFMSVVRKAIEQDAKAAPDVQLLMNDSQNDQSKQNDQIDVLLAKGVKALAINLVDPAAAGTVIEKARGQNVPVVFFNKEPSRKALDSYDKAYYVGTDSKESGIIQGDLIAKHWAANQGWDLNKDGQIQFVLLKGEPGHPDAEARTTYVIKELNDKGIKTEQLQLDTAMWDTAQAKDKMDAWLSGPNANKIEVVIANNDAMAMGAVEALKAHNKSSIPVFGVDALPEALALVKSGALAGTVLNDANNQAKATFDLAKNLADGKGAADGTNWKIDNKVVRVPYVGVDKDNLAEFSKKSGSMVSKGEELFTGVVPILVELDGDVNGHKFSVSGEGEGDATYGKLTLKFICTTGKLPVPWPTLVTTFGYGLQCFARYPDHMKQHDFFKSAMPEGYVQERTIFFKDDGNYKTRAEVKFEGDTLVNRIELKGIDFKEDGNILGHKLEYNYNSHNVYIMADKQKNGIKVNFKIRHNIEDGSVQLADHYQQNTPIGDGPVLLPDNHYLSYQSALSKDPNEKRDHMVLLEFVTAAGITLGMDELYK

Data set [2] concerns the target T2, CaraFY-PR arabinose FRET biosensor: fusion protein ECFP-ARBP-EYFP of E. coli MG1655 ARBP (arabinose-binding protein) (Escherichia coli, UniProt P02924). Kind of data set: Ligand titration of FRET biosensor CaraFY-PR (arabinose sensor) at its critical temperature. More on the design: 6xHis (C); made in house; host or cells: E. coli.
From the text: Likewise, in order to construct an expression vector of CaraFY-PR, a biosensor for measuring arabinose, ECFP gene was amplified by PCR using primers of SEQ ID NOs: 3 and 10, and ARBP gene was amplified by PCR using a chromosomal DNA, extracted from E. coli MG1655, as a template, and primers of SEQ ID NOs: 11 and 12.
The amplified ECFP and ARBP genes were amplified by PCR using primers of SEQ ID NOs: 3 and 12, thus obtaining a synthetic gene of ECFP-ARBP. The ECFP-ARBP gene was inserted into the ECFP-MBP gene position of the pECMY-BII expression vector, thereby constructing a pECaraFY-PR vector.
as §1, §2, §3
Target sequence in this assay (P02924 other isoform, or with tags, fused parts or gaps): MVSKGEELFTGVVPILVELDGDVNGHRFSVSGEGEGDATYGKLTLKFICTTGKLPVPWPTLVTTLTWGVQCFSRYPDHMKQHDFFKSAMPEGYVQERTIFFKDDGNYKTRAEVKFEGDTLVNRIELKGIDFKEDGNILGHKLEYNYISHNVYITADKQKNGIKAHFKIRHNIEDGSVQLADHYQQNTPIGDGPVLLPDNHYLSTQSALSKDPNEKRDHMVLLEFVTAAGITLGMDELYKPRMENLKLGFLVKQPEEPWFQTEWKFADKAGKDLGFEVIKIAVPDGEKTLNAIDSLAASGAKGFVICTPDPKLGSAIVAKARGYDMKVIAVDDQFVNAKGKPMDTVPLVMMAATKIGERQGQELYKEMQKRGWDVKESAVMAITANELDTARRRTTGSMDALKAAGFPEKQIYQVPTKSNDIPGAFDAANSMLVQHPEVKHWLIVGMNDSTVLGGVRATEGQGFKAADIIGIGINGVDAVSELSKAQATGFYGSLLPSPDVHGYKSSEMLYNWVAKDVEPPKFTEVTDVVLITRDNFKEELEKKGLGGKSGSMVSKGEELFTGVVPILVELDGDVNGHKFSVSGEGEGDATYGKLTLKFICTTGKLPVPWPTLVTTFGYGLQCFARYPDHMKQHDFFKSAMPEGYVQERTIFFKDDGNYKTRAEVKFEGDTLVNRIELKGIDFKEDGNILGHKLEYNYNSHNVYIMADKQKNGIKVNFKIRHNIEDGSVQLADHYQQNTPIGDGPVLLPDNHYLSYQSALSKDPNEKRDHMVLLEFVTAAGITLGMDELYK

Data set [3] has as its target T2, CaraFY-PR arabinose FRET biosensor: fusion protein ECFP-ARBP-EYFP of E. coli MG1655 ARBP (arabinose-binding protein). Kind of data set: Specificity of the arabinose FRET biosensor for various sugars. Conditions: critical temperature 49 °C; ligand 100 μM, 1 mM, 10 mM. On the procedure: (§4) Analysis of the specificities of the FRET biosensors for various ligands was performed using 19 kinds of sugars, including monosaccharides, polyscaccharides and sugar alcohols.
(§5) To measure the specificities of the sensors, each of the purified FRET biosensors was added to 0.5 ml of PBS buffer (pH 7.4) at a concentration of 0.5 μM such that the concentration of each ligand reached 100 μM, 1 mM, 10 mM, etc. In 3 minutes after the peltier device surrounding the cuvette has reached each of the critical temperatures determined in Example 3, fluorescence was measured.

The target of data set [4] is T1, CmglBY-SS glucose FRET biosensor: fusion protein ECFP-GGBP-EYFP of E. coli MG1655 GGBP (galactose/glucose-binding protein). Put plainly: Specificity of the glucose FRET biosensor for various sugars. Conditions: critical temperature 50 °C; ligand 100 μM, 1 mM, 10 mM. As to the method: as §4, §5
Target sequence in this assay (P0AEE5 24-332 limits assumed): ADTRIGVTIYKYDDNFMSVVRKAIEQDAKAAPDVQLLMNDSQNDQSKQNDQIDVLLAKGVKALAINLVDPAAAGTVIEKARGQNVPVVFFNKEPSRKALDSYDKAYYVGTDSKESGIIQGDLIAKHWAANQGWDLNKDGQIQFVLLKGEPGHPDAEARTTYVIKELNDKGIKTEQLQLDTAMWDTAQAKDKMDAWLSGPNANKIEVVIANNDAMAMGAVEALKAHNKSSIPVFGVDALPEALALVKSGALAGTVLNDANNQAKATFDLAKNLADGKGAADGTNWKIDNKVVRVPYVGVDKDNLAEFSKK
The target in data set [5] is CalsBY-QV allose FRET biosensor: fusion protein ECFP-ALBP-EYFP of E. coli MG1655 ALBP (allose-binding protein) (Escherichia coli, UniProt P39265). Put plainly: Specificity of the allose FRET biosensor for various sugars. The note with it: critical temperature 49 °C; ligand 100 μM, 1 mM, 10 mM; ribose compared with measurement at 25 °C in U.S. Pat. No. 7,432,353. On the procedure:
as §4, §5

For data set [6] the following is noted: cited from earlier work.

Chain of CalsBY-QV allose FRET biosensor: fusion protein ECFP-ALBP-EYFP of E. coli MG1655 ALBP (allose-binding protein) (P39265 24-311): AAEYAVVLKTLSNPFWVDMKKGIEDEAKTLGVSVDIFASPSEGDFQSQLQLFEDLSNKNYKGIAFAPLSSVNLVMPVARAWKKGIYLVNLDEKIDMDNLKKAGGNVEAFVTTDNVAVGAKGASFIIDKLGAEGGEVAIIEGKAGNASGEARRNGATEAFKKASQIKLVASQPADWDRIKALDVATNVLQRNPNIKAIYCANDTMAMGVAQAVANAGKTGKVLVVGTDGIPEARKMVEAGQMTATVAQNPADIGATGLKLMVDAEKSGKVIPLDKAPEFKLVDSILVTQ

As for `OC[C@H]1OC(O)[C@H](O)[C@@H](O)[C@@H]1O` (stereo partly shown) [glucose], the dissociation constant (Kd) – broadly, the constant that tells how readily two partners part at equilibrium – in data set [1] amounted to 9.2 ± 0.5 µM. In turn, `OC1OC[C@H](O)[C@H](O)[C@H]1O` (stereo partly shown) [arabinose] yielded a dissociation constant (Kd) in data set [2] of 67 ± 4 µM. For the molecule `OC[C@H]1OC(O)[C@H](O)[C@@H](O)[C@H]1O` (stereo partly shown) [galactose], the affinity result in data set [3] and in data set [4] was “very high affinity” each time. Turning to `OC1OC[C@@H](O)[C@@H](O)[C@H]1O` (stereo partly shown) [ribose], in data set [5], the “specificity for other sugars” value was “reduced specificity”.

B1: ARBP: E. coli periplasmic arabinose-binding protein (protein, UniProt P02924 24-329, looked up)
L-arabinose-binding …: ENLKLGFLVKQPEEPWFQTEWKFADKAGKDLGFEVIKIAVPDGEKTLNAIDSLAASGAKGFVICTPDPKLGSAIVAKARGYDMKVIAVDDQFVNAKGKPMDTVPLVMMAATKIGERQGQELYKEMQKRGWDVKESAVMAITANELDTARRRTTGSMDALKAAGFPEKQIYQVPTKSNDIPGAFDAANSMLVQHPEVKHWLIVGMNDSTVLGGVRATEGQGFKAADIIGIGINGVDAVSELSKAQATGFYGSLLPSPDVHGYKSSEMLYNWVAKDVEPPKFTEVTDVVLITRDNFKEELEKKGLGGK
As for B1, the “Unfolding temperature in the presence of ligand” value in data set [6] (1 mM arabinose (ARBP) / glucose (GGBP)) is 59 °C. In addition, the “Unfolding temperature in the absence of ligand” value in data set [6] (no arabinose (ARBP) / no glucose (GGBP)) is 53.5 °C.
